17 compounds from patent US10214546B2, “Btk inhibitors” (MERCK SHARP & DOHME CORP., priority 2014, dated 2019) can be followed below.

The test system of assay [1] is adenosine uptake into HeLa cells. Description: [3H]Adenosine uptake assay in HeLa cells. Format: cell-based. The note with it: compound range 10 μM to 0.032 nM. The procedure, abridged:
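HeLa cells in HBSS + 5% FBS were preincubated 30 min at ambient temperature with compound (ten-point 1:3 series, 10 µM–[…] final), then given [3H]adenosine (added as a 500 nM solution) for 60 min. Cell-associated label was read by scintillating-plate proximity counting; IC50 from 4-parameter fit of cps versus log concentration.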

For assay [2], the target named is BTK enzyme (recombinant full-length BTK, hBTK) (Homo sapiens (Human), UniProt Q06187). Description: BTK enzymatic activity LANCE TR-FRET assay. The class given is biochemical. The note with it: 50 pM hBTK, 25 μM ATP, 2 μM biotin-A5-peptide; compound range 1 μM to 0.017 nM; read-out: BTK binding IC50. Background: In TR-FRET formats the signal depends on donor and acceptor labels being close together.

Setting [3] is: Homo sapiens, HeLa, [3H]adenosine accumulation in HeLa cells, read-out: ADU inhibition IC50.
[4] abbreviates: [3H]adenosine accumulation in HeLa cells, read-out: ADU inhibition IC50.

SMILES strings stand for the structures. Like-named read-outs stand apart in the source and are kept apart here.

BTK enzyme (recombinant full-length BTK, hBTK), sequence (Q06187 whole entry): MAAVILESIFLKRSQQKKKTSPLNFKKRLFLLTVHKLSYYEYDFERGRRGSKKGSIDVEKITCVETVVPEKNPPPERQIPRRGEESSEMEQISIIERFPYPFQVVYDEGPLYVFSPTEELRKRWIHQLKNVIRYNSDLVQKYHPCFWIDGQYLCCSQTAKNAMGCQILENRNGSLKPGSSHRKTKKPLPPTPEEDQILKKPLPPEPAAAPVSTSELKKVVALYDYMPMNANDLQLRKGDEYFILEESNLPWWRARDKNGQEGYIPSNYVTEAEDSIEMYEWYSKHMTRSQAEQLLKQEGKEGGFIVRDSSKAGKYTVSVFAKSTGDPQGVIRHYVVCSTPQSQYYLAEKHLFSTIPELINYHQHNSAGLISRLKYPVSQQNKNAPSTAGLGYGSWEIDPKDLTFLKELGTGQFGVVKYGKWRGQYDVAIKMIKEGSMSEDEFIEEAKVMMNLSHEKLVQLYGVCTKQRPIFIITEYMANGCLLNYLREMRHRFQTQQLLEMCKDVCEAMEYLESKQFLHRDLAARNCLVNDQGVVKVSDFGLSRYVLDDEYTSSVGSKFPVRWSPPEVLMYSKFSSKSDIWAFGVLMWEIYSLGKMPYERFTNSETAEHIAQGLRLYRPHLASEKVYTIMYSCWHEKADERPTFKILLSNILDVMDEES

As for `C[C@](O)(c1ccc(-c2nc([C@@H]3CC[C@H]4CCC(=O)N4C3)n3ccnc(N)c23)cc1)c1cccc(C#N)c1` [Example 84, 3-[(1S)-1-(4-{8-amino-3-[(6R,8aS)-3-oxooctahydroindolizin-6-yl]imidazo[1,5-a]pyrazin-1-yl}phenyl)-1-hydroxyethyl]benzonitrile], the results for the IC50 in assay [1] (setting [3]) and in assay [2] were 2380 nM and 1 µM, respectively.
As to `C[C@@](O)(c1ccc(-c2nc([C@@H]3CC[C@H]4CCC(=O)N4C3)n3ccnc(N)c23)cc1)c1cccc(C#N)c1` [Example 85, 3-[(1R)-1-(4-{8-amino-3-[(6R,8aS)-3-oxooctahydroindolizin-6-yl]imidazo[1,5-a]pyrazin-1-yl}phenyl)-1-hydroxyethyl]benzonitrile], the IC50 (as a rule, the concentration needed to halve the response being measured) is 3530 nM in assay [1] (setting [3]) and 0.0234 µM in assay [2].
As for `Nc1nccn2c([C@@H]3CC[C@H]4CCC(=O)N4C3)nc(-c3ccc(C(O)(c4cccc(C(F)(F)F)c4)C4CC4)cc3)c12` (stereo partly drawn) [Example 86, (6R,8aS)-6-[8-amino-1-(4-{cyclopropyl(hydroxy)[3-(trifluoromethyl)phenyl]methyl}phenyl)imidazo [1,5-a]pyrazin-3-yl]hexahydroindolizin-3(2H)-one], the IC50 in assay [1] (setting [4]) was 589 nM; in assay [2], 1 µM.
Take `Nc1nccn2c([C@@H]3CC[C@H]4CCC(=O)N4C3)nc(-c3ccc(C(O)(c4cccc(C(F)(F)F)c4)C4CC4)cc3)c12` (stereo partly drawn) [Example 87, (6R,8aS)-6-[8-amino-1-(4-{cyclopropyl(hydroxy)[3-(trifluoromethyl)phenyl]methyl}phenyl)imidazo [1,5-a]pyrazin-3-yl]hexahydroindolizin-3(2H)-one]: the values for the IC50 in assay [1] (setting [4]) and in assay [2] were 1580 nM and 0.123 µM, respectively.
On to `CC(O)(c1cccc(C(F)(F)F)c1)c1ccc(-c2nc([C@@H]3CC[C@H]4CCC(=O)N4C3)n3ccnc(N)c23)c(C2CC2)c1` (stereo partly drawn) [Example 88, (6R,8aS)-6-[8-amino-1-(2-cyclopropyl-4-{1-hydroxy-1-[3-(trifluoromethyl)phenyl]ethyl}phenyl)imidazo [1,5-a]pyrazin-3-yl]hexahydroindolizin-3(2H)-one], for which the results for the IC50 in assay [1] (setting [3]) and in assay [2] were 1100 nM and 0.577 µM, respectively.
On the same counts, the results for `CO[C@](C)(c1ccc(-c2nc([C@@H]3CC[C@H]4CCC(=O)N4C3)n3ccnc(N)c23)cc1)c1cccc(C(F)(F)F)c1` [Example 89, (6R,8aS)-6-[8-amino-1-(4-{(1R)-1-methoxy-1-[3-(trifluoromethyl)phenyl]ethyl}phenyl)imidazo [1,5-a]pyrazin-3-yl]hexahydroindolizin-3(2H)-one] are 3490 nM and 1 µM.
On the same counts, the results for `CO[C@@](C)(c1ccc(-c2nc([C@@H]3CC[C@H]4CCC(=O)N4C3)n3ccnc(N)c23)cc1)c1cccc(C(F)(F)F)c1` [Example 90, (6R,8aS)-6-[8-amino-1-(4-{(1S)-1-methoxy-1-[3-(trifluoromethyl)phenyl]ethyl}phenyl)imidazo [1,5-a]pyrazin-3-yl]hexahydroindolizin-3(2H)-one] are 969 nM and 1 µM.
For `CCc1cccc([C@@](C)(O)c2ccc(-c3nc([C@@H]4CC[C@H]5CCC(=O)N5C4)n4ccnc(N)c34)cc2)c1` [Example 92, (6R,8aS)-6-(8-amino-1-{4-[(1S)-1-(3-ethylphenyl)-1-hydroxyethyl]phenyl}imidazo[1,5-a]pyrazin-3-yl)hexahydroindolizin-3(2H)-one], the IC50 worked out at 619 nM in assay [1] (setting [3]) and 0.00048 µM in assay [2].
On the same counts, the results for `CCc1cccc([C@](C)(O)c2ccc(-c3nc([C@@H]4CC[C@H]5CCC(=O)N5C4)n4ccnc(N)c34)cc2)c1` [Example 93, (6R,8aS)-6-(8-amino-1-(4-[(1R)-1-(3-ethylphenyl)-1-hydroxyethyl]phenyl}imidazo[1,5-a]pyrazin-3-yl)hexahydroindolizin-3(2H)-one] are 1380 nM and 0.00015 µM.
Turning to `C[C@](O)(c1ccc(-c2nc([C@@H]3CC[C@H]4CCC(=O)N4C3)n3ccnc(N)c23)cc1)c1cccc(OC2CC2)c1` [Example 94, (6R,8aS)-6-[8-amino-1-(4-{(1S)-1-[3-(cyclopropyloxy)phenyl]-1-hydroxyethyl}phenyl)imidazo[1,5-a]pyrazin-3-yl]hexahydroindolizin-3(2H)-one], the results for the IC50 in assay [1] (setting [3]) and in assay [2] were 800 nM and 0.201 µM, respectively.
On to `C[C@@](O)(c1ccc(-c2nc([C@@H]3CC[C@H]4CCC(=O)N4C3)n3ccnc(N)c23)cc1)c1cccc(OC2CC2)c1` [Example 95, (6R,8aS)-6-[8-amino-1-(4-{(1R)-1-[3-(cyclopropyloxy)phenyl]-1-hydroxyethyl}phenyl)imidazo[1,5-a]pyrazin-3-yl]hexahydroindolizin-3(2H)-one], for which the IC50 in assay [1] (setting [3]) worked out at 1980 nM; in assay [2], 0.0018 µM.
As to `NC(=O)C(O)(c1ccc(-c2nc([C@@H]3CC[C@H]4CCC(=O)N4C3)n3ccnc(N)c23)cc1)c1cccc(C(F)(F)F)c1` (stereo partly drawn) [Example 96, 2-(4-{8-amino-3-[(6R,8aS)-3-oxooctahydroindolizin-6-yl]imidazo[1,5-a]pyrazin-1-yl}phenyl)-2-hydroxy-2-[3-(trifluoromethyl)phenyl] acetamide], the IC50 turned out to be 7140 nM in assay [1] (Homo sapiens, HeLa, read-out: ADU inhibition IC50 (nM), [3H]adenosine accumulation in HeLa cells) and 0.576 µM in assay [2].
`NC(=O)C(O)(c1ccc(-c2nc([C@@H]3CC[C@H]4CCC(=O)N4C3)n3ccnc(N)c23)cc1)c1cccc(C(F)(F)F)c1` (stereo partly drawn) [Example 97, 2-(4-{8-amino-3-[(6R,8aS)-3-oxooctahydroindolizin-6-yl]imidazo[1,5-a]pyrazin-1-yl}phenyl)-2-hydroxy-2-[3-(trifluoromethyl)phenyl] acetamide]: the IC50 in assay [1] (read-out: ADU inhibition IC50, [3H]adenosine accumulation in HeLa cells) was found to be 10000 nM; in assay [2] it was 0.894 µM.
As to `COc1cc(-c2nc([C@@H]3CC[C@H]4CCC(=O)N4C3)n3ccnc(N)c23)ccc1[C@](C)(O)c1cccc(C2CC2)c1` [Example 98, (6R,8aS)-6-(8-amino-1-{4-[(1R)-1-(3-cyclopropylphenyl)-1-hydroxyethyl]-3-methoxyphenyl}imidazo [1,5-a]pyrazin-3-yl)hexahydroindolizin-3(2H)-one], the IC50 in assay [1] (setting [3]) is 3170 nM; in assay [2], 0.00028 µM.
For `COc1cc(-c2nc([C@@H]3CC[C@H]4CCC(=O)N4C3)n3ccnc(N)c23)ccc1[C@@](C)(O)c1cccc(C2CC2)c1` [Example 99, (6R,8aS)-6-(8-amino-1-{4-[(1S)-1-(3-cyclopropylphenyl)-1-hydroxyethyl]-3-methoxyphenyl}imidazo [1,5-a]pyrazin-3-yl)hexahydroindolizin-3(2H)-one], the IC50 in assay [1] (setting [3]) worked out at 1190 nM; in assay [2], 0.0101 µM.
On the same counts, the results for `CC(O)(c1cccc(C(F)(F)F)c1)c1ccc(-c2nc([C@@H]3CC[C@H]4CCC(=O)N4C3)n3ccnc(N)c23)c(Cl)c1` (stereo partly drawn) [Example 100, (6R,8aS)-6-[8-amino-1-(2-chloro-4-{1-hydroxy-1-[3-(trifluoromethyl)phenyl]ethyl}phenyl)imidazo [1,5-a]pyrazin-3-yl]hexahydroindolizin-3(2H)-one] are 311 nM and 0.0174 µM.
On the same counts, the results for `C[C@](O)(c1cccc(C(F)(F)F)c1)c1ccc(-c2nc([C@@H]3CC[C@H]4CCC(=O)N4C3)n3ccnc(N)c23)c(F)c1` [Example 101, (6R,8aS)-6-[8-amino-1-(2-fluoro-4-{(1S)-1-hydroxy-1-[3-(trifluoromethyl)phenyl]ethyl}phenyl)imidazo [1,5-a]pyrazin-3-yl]hexahydroindolizin-3(2H)-one] are 371 nM and 0.774 µM.
